The assay deals with relapsed/refractory (R/R) follicular lymphoma (FL). Description: DAWN study (NCT01779791): phase 2, single-arm ibrutinib monotherapy. Format: in vivo, humans. The settings on record: patients with R/R FL, ibrutinib 560 mg once daily. From the text: Detailed methodology for the DAWN trial is published in Gopal A K, et al. J Clin Oncol. 2018; 36:2405-2412. […] The primary end point was overall response rate (ORR=complete response [CR]+partial response [PR]), assessed by an independent review committee using the International Working Group Revised Response Criteria for Malignant Lymphoma.

Consider one compound from patent US20200171034A1, “Methods Of Treating Follicular Lymphoma” (Janssen Biotech, Inc., priority 2018, published 2020).

In the case of `C=CC(=O)N1CCC[C@@H](n2nc(-c3ccc(Oc4ccccc4)cc3)c3c(N)ncnc32)C1` [ibrutinib, Ibrutinib], the “duration of response (median) in responders” value stood at 19.4 months. Further, the “overall response rate (ORR = complete response + partial response)” value (independent review committee, 95% CI 13.7-29.7) was 20.9%.
